Measurements reported in ChEMBL document CHEMBL1201862, “PubChem BioAssay data set” (2004).
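The compound was tested at five concentrations on cells cultured in 96-well plates, with a 48-hour exposure period. GI50 is the concentration that inhibits growth by half.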 Activity calls are given as the source filed them. Cut-off read from the data, not from the text of the source: active = GI50 up to about 1.1 µM and inactive = higher.

How the values were obtained:
Assay in all cases: DTP human tumour cell line panel, 48 h
[1] = tested on: K562
[2] = tested on: DMS-114
[3] = tested on: CCRF-CEM
[4] = tested on: NCI-H460
[5] = tested on: NCI-H226
[6] = tested on: DMS-273
[7] = tested on: SK-MEL-5
[8] = tested on: EKVX
[9] = tested on: RXF 393
[10] = tested on: KM12
[11] = tested on: SNB-75
[12] = tested on: MOLT-4
[13] = tested on: NCI-H522
[14] = tested on: M19-MEL
[15] = tested on: ACHN
[16] = tested on: SK-MEL-28
[17] = tested on: SW-620
[18] = tested on: HL-60
[19] = tested on: HOP-92
[20] = tested on: HOP-18
[21] = tested on: 786-0
[22] = tested on: SN12C
[23] = tested on: U-251
[24] = tested on: Malme-3M
[25] = tested on: XF498
[26] = tested on: DLD-1
[27] = tested on: LOX IMVI
[28] = tested on: IGROV-1
[29] = tested on: CAKI-1
[30] = tested on: A549
[31] = tested on: SNB-78
[32] = tested on: UACC-257
[33] = tested on: SNB-19
[34] = tested on: SF-295
[35] = tested on: OVCAR-4
[36] = tested on: HCC 2998
[37] = tested on: A498
[38] = tested on: KM-20L2
[39] = tested on: SF-539
[40] = tested on: NCI-H23
[41] = tested on: SK-MEL-2
[42] = tested on: RPMI-8226
[43] = tested on: HOP-62
[44] = tested on: OVCAR-5
[45] = tested on: LXFL 529
[46] = tested on: SF-268
[47] = tested on: OVCAR-8
[48] = tested on: HCT-15
[49] = tested on: TK-10
[50] = tested on: M14
[51] = tested on: UO-31
[52] = tested on: HT-29
[53] = tested on: HCT-116
[54] = tested on: UACC-62
[55] = tested on: OVCAR-3
[56] = tested on: SR
[57] = tested on: SK-OV-3
[58] = tested on: COLO 205

Measured: GI50

CCCCN(CCCC)C(=O)C(=O)C(C#N)c1ccc(C)cc1 (stereo not given)
> 100 µM: [48]
inactive: [1] > 100 µM | [2] > 100 µM | [3] > 100 µM | [4] > 100 µM | [5] > 100 µM | [6] > 100 µM | [7] > 100 µM | [8] > 100 µM | [9] > 100 µM | [10] > 100 µM | [11] > 100 µM | [12] > 100 µM | [13] > 100 µM | [14] > 100 µM | [15] > 100 µM | [16] > 100 µM | [17] > 100 µM | [18] > 100 µM | [19] > 100 µM | [20] > 100 µM | [21] > 100 µM | [22] > 100 µM | [23] > 100 µM | [24] > 100 µM | [25] > 100 µM | [26] > 100 µM | [27] > 100 µM | [28] > 100 µM | [29] > 100 µM | [30] > 100 µM | [31] > 100 µM | [32] > 100 µM | [33] > 100 µM | [34] > 100 µM | [35] > 100 µM | [36] > 100 µM | [37] > 100 µM | [38] > 100 µM | [39] > 100 µM | [40] > 100 µM | [41] > 100 µM | [42] > 100 µM | [43] > 100 µM | [44] > 100 µM | [45] > 100 µM | [46] > 100 µM | [47] > 100 µM | [49] > 100 µM | [50] > 100 µM | [51] > 100 µM | [52] > 100 µM | [53] > 100 µM | [54] > 100 µM | [55] > 100 µM

O=C1c2ccccc2N2OC3(N4CCCC4)CCCC3C12c1ccccc1 (stereo not given)
> 100 µM: [48]
inactive: [1] 76.6 µM | [2] 83.4 µM | [56] 59.4 µM | [3] > 100 µM | [5] > 100 µM | [6] 67.6 µM | [7] 61.4 µM | [8] > 100 µM | [9] > 100 µM | [11] > 100 µM | [12] 49.9 µM | [13] > 100 µM | [14] > 100 µM | [15] > 100 µM | [16] > 100 µM | [17] > 100 µM | [18] 43.3 µM | [19] 34.8 µM | [20] > 100 µM | [21] > 100 µM | [22] > 100 µM | [23] > 100 µM | [24] > 100 µM | [25] 92.3 µM | [26] > 100 µM | [28] > 100 µM | [30] 68.5 µM | [57] > 100 µM | [31] > 100 µM | [32] 71.6 µM | [58] > 100 µM | [33] > 100 µM | [34] 86.1 µM | [35] 29.6 µM | [36] > 100 µM | [37] > 100 µM | [38] > 100 µM | [39] > 100 µM | [40] > 100 µM | [42] 62.8 µM | [43] > 100 µM | [45] 67.8 µM | [46] > 100 µM | [47] > 100 µM | [50] > 100 µM | [51] > 100 µM | [52] > 100 µM | [53] 73.3 µM | [54] 74.3 µM
